# Data reported in US8318899B2, “Lytic domain fusion constructs and methods of making and using same” (Board of Supervisors of Louisiana State University and …, priority 2008, dated 2012).
# Test system: NIH:OVCAR-3 xenograft
# Assay: OVCAR-3 ovarian cancer xenograft
# Assay type: in vivo
# Conditions: for tumor volume during treatment: Phor18-LHRH 0.02-2 mg/kg, CLIP71 2 mg/kg, cisplatinum 10 mg/kg
# Procedure: The xenograft model of the OVCAR-3 human ovarian cancer cell line that present functional LHRH receptors was used in this study. OVCAR-3 represents a slow growing xenograft model and secretes the tumor marker (cancer antigen 125, or […]). It's secretion can be used as treatment response and is a measure of drug activity.
# In brief, Nu/Nu female mice, inbred strain, age 5 weeks (Harlan-Sprague Dawley) were injected subcutaneously with a NIH:OVCAR-3 cells/Matrigel suspension (4.6×10^6 cells/mouse). Treatment was started on day 33 after tumor cell injection when the tumors were established and continued on days 41 and 47. The doses for the 3 weekly injections were 0.02, 0.2 and 2 mg/kg body weight, given as a single bolus intravenous injection via lateral tail vein administered once a week for three weeks on days 33, 41 and 47. Necropsies were conducted on day 52. Data are presented as mean SEM. Arrows show dosing.
# A group of 9 tumor bearing mice was sacrificed on day 33 and served as baseline group. All mice were necropsied 51-52 days after tumor cell injection. Tumor volumes and bodyweights were recorded twice weekly during the study, as well as overall veterinarian examination of mice was conducted.
# Primary tumors, liver, kidney, pancreas, heart, lung, and spleen were collected, fixed in formalin and prepared for histological evaluation. Tumor weights were measured at necropsy, part of the tumors were frozen at −80° C. for LH/CG and LHRH receptor assay determination.
# As a biomarker for drug activity, CA125 was determined in serum, collected from each individual mouse at necropsy using a Enzyme Linked Immunoassay for quantitative determination of ovarian cancer antigen CA125 (Assay kit Genway, Biotech, Inc. San Diego, Calif., Catalog #40-052-115009, # BC-1013 according to the manufacturer).
# LHRH receptor levels were assessed from formalin fixed tumors. Quantitative immunoperoxidase image analysis was conducted with the Ventana Image Analysis System (VIAS) adjunctive computer assisted image analysis system functionally connected to an interactive microscope (Axio Imager). The quantitative analysis was conducted with the program for quantification of Her2/neu receptor that included morphometric and colorimetric analysis. Receptor status results were reported as percentage of cells showing positive staining of the LHRH receptors under the following criteria: 0 non-immunoreactive, 1+: 1-25% positive, 2+: 26-50% positive, 3+: 51-75% positive cells.
smiles,measurement,setting,value
"N.N.[Cl][Pt][Cl] [Cisplatinum, reference compound]",tumor volume during treatment,,no reduction in tumor volume
same,tumor volume during treatment,listed as cisplatinum,tumor growth was observed
same,tumor weights at necropsy,"mouse, in vivo",not effective in reducing tumor weights
